This is an account of results in article PMC9338942, “(+)-Usnic acid and its salts, inhibitors of SARS‐CoV‐2, identified by using in silico methods and in vitro assay” (Scientific Reports, 2022).

Assay in all cases: microbe, parasite or virus in culture
Common to all, as to format: cell-based
Common to all, as to conditions: Severe acute respiratory syndrome coronavirus 2, vero cells

Assay [1] has as its system SARS-CoV-2 Alpha var (B.1.1.7).
Assay [2] concerns SARS-CoV-2 Delta var (B.1.617.2).
The subject of assay [3] is SARS-CoV-2 Beta var (B.1.351).

Take `CC(=O)c1c(O)c(C)c(O)c2c1OC1=CC(=O)C(C(C)=O)C(=O)[C@@]12C` (single isomer, unassigned; (+)) [(+)-usnic acid]: the IC50 came out at 6.05 µM in assay [1], 7.17 µM in assay [2] and 2.92 µM in assay [3].
Take `CCN(CC)CCCC(C)Nc1ccnc2cc(Cl)ccc12` (stereo not drawn) [chloroquine]: the values for the IC50 in assay [1], in assay [2] and in assay [3] were 6.16 µM, 6.22 µM and 2.64 µM, respectively.
On to `Cc1cccc(C)c1OCC(=O)N[C@@H](Cc1ccccc1)[C@@H](O)C[C@H](Cc1ccccc1)NC(=O)[C@H](C(C)C)N1CCCNC1=O` [lopinavir], for which the IC50 in assay [1] turned out to be 10.8 µM; in assay [2], 15.3 µM; in assay [3], 11.8 µM.
For `CCC(CC)COC(=O)[C@H](C)N[P@](=O)(OC[C@H]1O[C@@](C#N)(c2ccc3c(N)ncnn23)[C@H](O)[C@@H]1O)Oc1ccccc1` [remdesivir], the IC50 in assay [1] came to 2.25 µM; in assay [2] it was 6.48 µM; in assay [3], 1.47 µM.
